Results on 22 molecules are retold here after paper PMC9889419 (Pharmacological Reports, 2022).

The structures appear in SMILES notation. Where two headings read alike, the source gives them in different places. Marks after values point to notes of the source that are not given here.

The subject of series [1] is guinea pigs. As to conditions: 0.5%, cited from earlier work.
In series [2] the test system is mice. As to conditions: ip, cited from earlier work.
For series [3], the system named is mice. Kind of series: Subcutaneous pentylenetetrazole seizure test (ScPTZ, SCMET). In kind it is in vivo. The conditions noted are these: mice, ip, 0.5 h.
Procedure: (§1) The assays were carried out within the Epilepsy Therapy Screening Program (ETSP, previously known as the Anticonvulsant Screening Program, ASP), Epilepsy Branch, National Institute of Neurological and Communicative Disorders and Stroke, National Institutes of Health in Rockville, MD, USA [23].
The subject of series [4] is mice. The experiment in a line: Rotarod test (neurotoxicity).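 On all read-outs here: in vivo neurotoxicity screen run within the NIH Epilepsy Therapy Screening Program (ETSP, formerly Anticonvulsant Screening Program).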 In kind it is in vivo. The conditions noted are these: for Rotarod: neurotoxic at: mice, ip; for Number of animals active or toxic over the number tested: Rotarod. In general terms: In the rotarod test animals must keep their balance on a rotating rod.
Procedure: as §1
(§2) The obtained compounds were screened for antiseizure activity and neurotoxicity in vivo within the Epilepsy Therapy Screening Program (ETSP, previously known as the Anticonvulsant Screening Program, ASP), Epilepsy Branch, National Institute of Neurological and Communicative Disorders and Stroke, National Institutes of Health in Rockville, MD, USA [23].
In series [5] the test system is mice. The conditions noted are these: for MES: active at: mice, ip; for Number of animals active or toxic over the number tested: MES.
Procedure: as §1, §2
The next series has as its system rats. As to conditions: ip; cited from earlier work.
For series [6], the system named is mice. As to conditions: 32 mA, ip; cited from earlier work.
Series [7] deals with mice. The conditions noted are these: ip; cited from earlier work.
Series [8] concerns mice. The experiment in a line: 6 Hz test. In kind it is in vivo. As to conditions: for Number of animals active or toxic over the number tested: 6 Hz.
Procedure: The 6 Hz model test was carried out according to the protocol originally described by Brown et al. [54] and more recently by Barton et al. [55] and Kamiński et al. [47] and is a model of pharmacoresistant epilepsy [56].
In series [9] the test system is mice. The experiment in a line: Antiseizure activity and preliminary toxicity screening. It is filed as in vivo. The conditions noted are these: ip.
Series [10] has as its system mice. The conditions noted are these: cited from earlier work.
Series [11] deals with guinea pigs. The experiment in a line: Infiltration anesthesia (intradermal wheal test). In kind it is in vivo.
Procedure: A painful reaction to a prick of the skin at the centre of the wheal three times and every 5 s with 5 min intervals during the first 30 min of observation was tested. The experiment was continued to achieve a return of a reaction to the prick. The control wheal was done by an intradermal injection of 0.1 mL of 0.9% NaCl [25]. Local anesthesia was determined by calculating the ratio of the number of positive responses (no flinch) to the number of negative responses (flinch).
The test system of series [12] is mice. Kind of series: Tail immersion test (local anesthetic activity). It is filed as in vivo.
Procedure: The tail immersion test in mice. […] The method was performed by subcutaneous (sc) injection of the tested substance dissolved in saline, at a concentration range 0.06–2%, in a constant volume of 0.2 mL about 1 cm from the root of the mouse tail. Fifteen minutes later, the 3-cm distal part of the tail was immersed into temperature-controlled water (50 ± 0.5 °C). The reaction time (latency until the tail is pulled away) was measured by the means of a chronometer. In this assay the cut-off was 20 s [29].
The test system of series [13] is guinea pigs. Kind of series: Corneal anesthesia. It is filed as in vivo. As to conditions: 5 min.
Procedure: A. Corneal anesthesia. […] The corneal reflex was examined by irritation of right eye conjunctiva (studied eye) and a left eye conjunctiva (control eye) by horsehair. The strength of local anesthetic activity was determined from the moment of solution instillation to the moment of reflex return. The presence or lack of corneal reflex were assessed. The eye conjunctiva irritation was done 6 times (every 5 s) with the interval of 5 min during the first 30 min [31].
Series [14] relates to mice. The experiment in a line: Formalin test (first screening). It is filed as in vivo. The conditions noted are these: ip.
Procedure: Formalin test. The first screening in doses 15 and 30 mg/kg was performed at the Jagiellonian University-Medical College. […] After 30 min, animals were injected with 20 μL of a 0.5% formalin solution into the plantar surface of the hind paw. The total time spent by animal licking or biting the injected paw was assessed for the following 40 min.

For the molecule `CCN(CC)CC(=O)Nc1c(C)cccc1C` [Lidocaine], the “Inhibition of pain reaction” value with guinea pigs [1] (240 min) is reported as 22.2%; with guinea pigs [1] (24 h) it was 0%.
With `CC(C)NCC(O)COc1cccc2ccccc12` (centres unmarked) [Propranolol, propranolol], in the series on mice [2] (Table 3), the “MES ED50” value is recorded as “MES: ED50 = 15–20 mg/kg”.
Turning to `CCC(CO)NC(=O)COc1c(C)cccc1Cl` (centres unmarked) [Compound 12, R,S-2-(2-chloro-6-methylphenoxy)-N-(1-hydroxybutan-2-yl)acetamide], in the series with mice [3], the “ScPTZ: active at” value stood at 100 mg/kg. In addition, the “Rotarod: neurotoxic at” value with mice [4] (0.5 h) stood at 300 mg/kg. Moreover, in the series on mice [5] (0.5 h), the “MES: active at” value worked out at 300 mg/kg.
`NCC1(CC(=O)O)CCCCC1` [Gabapentin]: the “SNL ED50” value in the series on rats is listed as 32 mg/kg.
With `CC(=O)[C@H]1CC[C@H]2[C@@H]3CC[C@H]4C[C@H](O)CC[C@]4(C)[C@H]3CC[C@]12C` [Allopregnanolone], in the series on mice [6], the “6 Hz ED50” value is recorded as 14.2 (10.3–19.4) mg/kg and the “6 Hz TPE” value was 0.17 h. Further, in the series on mice [7], the “ScPTZ ED50” value is on record as 13.7 (10.1–18.7) mg/kg and the “ScPTZ TPE” value is reported as 0.17 h. In the series on mice [2], the “MES ED50” value is listed as over 100 mg/kg and the “MES TPE” value is reported as 0.17 h.
For `Cc1cccc(Cl)c1OCC(=O)N[C@H]1CC[C@H](O)CC1` [Compound 18, Trans-2-(2-chloro-6-methylphenoxy)-N-(4-hydroxycyclohexyl)acetamide], the “Number of animals active or toxic over the number tested” value (from here on “Number … over the number tested”) in the series on mice [4] (30 mg/kg, 0.5 h) is on record as 0/8; in the series with mice [4] (30 mg/kg, 2.0 h), 0/8; in the series with mice [4] (100 mg/kg, 0.5 h), 2/8; in the series with mice [4] (100 mg/kg, 2.0 h), 0/8; in the series on mice [4] (300 mg/kg, 0.5 h), 8/8 (sedated); in the series with mice [4] (300 mg/kg, 2.0 h) it was 0/8 (unable to grasp rotarod). The “Number … over the number tested” value in the series on mice [8] (30 mg/kg, 0.5 h) was 0/4; in the series with mice [8] (30 mg/kg, 2.0 h), 0/4; in the series on mice [8] (100 mg/kg, 0.5 h) it was 4/4; with mice [8] (100 mg/kg, 2.0 h) it was 0/4; with mice [8] (300 mg/kg, 0.5 h) it was 4/4; in the series with mice [8] (300 mg/kg, 2.0 h) it was 4/4. Besides, the “Number … over the number tested” value in the series with mice [5] (30 mg/kg, 0.5 h) is on record as 3/4; with mice [5] (30 mg/kg, 2.0 h), 0/4; in the series on mice [5] (100 mg/kg, 0.5 h), 4/4; in the series on mice [5] (100 mg/kg, 2.0 h), 0/4; in the series with mice [5] (300 mg/kg, 0.5 h) it was 4/4; in the series with mice [5] (300 mg/kg, 2.0 h), 4/4. Besides, the “Rotarod: neurotoxic at” value in the series on mice [4] (0.5 h) is on record as 100 mg/kg. The “8 Hz: active at” value in the series on mice [8] (mice, ip, 0.5 h) was determined as 100 mg/kg. Further, the “MES: active at” value in the series on mice [5] (0.5 h) came to 30 mg/kg.
As for `Cc1cccc(Cl)c1OCC(=O)N[C@@H](C)C(=O)O` [Compound 15, S-(-)-(2-(2-chloro-6-methylphenoxy)acetyl)alanine], the “Antiseizure activity and preliminary toxicity screening: result” value in the series with mice [9] is “No activity”.
Consider `NC(=O)N1c2ccccc2CC(=O)c2ccccc21` [Oxcarbazepine], for which the “SNL MED” value with rats was 10 mg/kg.
`Cc1cccc(Cl)c1OCC(=O)NC(C)C(=O)O` (stereo not drawn) [Compound 13, R,S-(2-(2-chloro-6-methylphenoxy)acetyl)alanine]: the “Antiseizure activity and preliminary toxicity screening: result” value with mice [9] is “No activity”.
On to `CCC(O)CNCCOc1c(C)cccc1Cl` (centres unmarked) [Compound 3, R,S-1-((2-(2-chloro-6-methylphenoxy)ethyl)amino)butan-2-ol], for which, in the series with mice [4] (0.5 h), the “Rotarod: neurotoxic at” value amounted to 100 mg/kg. Also, the “MES: active at” value in the series with mice [5] (0.5 h) turned out to be 30 mg/kg.
For `O=C1NC(=O)C(c2ccccc2)(c2ccccc2)N1` [Phenytoin], in the series on mice [10] (1.0%), the “Prolongation of the time reaction” value is given as 18% and the “Reaction time to painful stimulus” value is 5.72 ± 0.63 s. In the series with mice [10] (2.0%), the “Prolongation of the time reaction” value is 84% and the “Reaction time to painful stimulus” value is 8.90 ± 0.80 s.
As to `Cc1cccc(Cl)c1OCCNC(C)CO` (centres unmarked) [Compound 2, R,S-2-((2-(2-chloro-6-methylphenoxy)ethyl)amino)propan-1-ol], the “Rotarod: neurotoxic at” value in the series on mice [4] (0.5 h) is “MES: active at 100 Rotarod: neurotoxic at 100 mg/kg”. Moreover, in the series with mice [5] (0.5 h), the “MES: active at” value is given as “MES: active at 100 Rotarod: neurotoxic at 100 mg/kg”.
On to `Cc1cccc(Cl)c1OCCNCC(O)c1ccccc1` (centres unmarked) [Compound 9, R,S-2-((2-(2-chloro-6-methylphenoxy)ethyl)amino)-1-phenylethan-1-oll], for which the “Rotarod: neurotoxic at” value in the series with mice [4] (0.5 h) was determined as 100 mg/kg. Moreover, the “MES: active at” value in the series with mice [5] (0.5 h) came out at 30 mg/kg.
With `Cc1cccc(Cl)c1OCC(=O)NC(C)CO` (centres unmarked) [Compound 11, R,S-2-(2-chloro-6-methylphenoxy)-N-(1-hydroxypropan-2-yl)acetamide], the “Rotarod: neurotoxic at” value with mice [4] (0.5 h) came to 100 mg/kg. The “MES: active at” value in the series on mice [5] (0.5 h) came to 300 mg/kg.
In the case of `Cc1cccc(C)c1NC(=O)C1CCCCN1C` (centres unmarked) [Mepivacaine], the results for the “Prolongation of the time reaction” value with mice [10] (1.0%) and with mice [10] (2.0%) were 94.63% and 116.67%, respectively. Further, the “Reaction time to painful stimulus” value is reported as 14.13 ± 2.67 s with mice [10] (1.0%) and 15.73 ± 2.09 s with mice [10] (2.0%).
On to `Cc1cccc(Cl)c1OCCNCC(C)O` (centres unmarked) [Compound 1, R,S-1-((2-(2-chloro-6-methylphenoxy)ethyl)amino)propan-2-ol], for which the “Rotarod: neurotoxic at” value with mice [4] (0.5 h) came out at 100 mg/kg. For the same molecule, the “MES: active at” value in the series on mice [5] (0.5 h) came out at 30 mg/kg.
For `CC[C@@H](CO)NCCOc1c(C)cccc1Cl.Cl` [Compound 6a, S-( +)-2-((2-(2-chloro-6-methylphenoxy)ethyl)amino)butan-1-ol hydrochloride], the “Inhibition of pain reaction” value with guinea pigs [11] (0.5%, 30 min) is given as 93.75*** %; in the series with guinea pigs [11] (0.5%, 60 min), 43.75* %; in the series on guinea pigs [11] (0.5%, 120 min), 25%; with guinea pigs [11] ([…], 5 min), 94.44*** %; with guinea pigs [11] ([…], 60 min) it was 38.89* %; in the series on guinea pigs [13] (0.5%), 75*** %. For the same molecule, the “Inhibition of pain reaction” value with guinea pigs [13] ([…]) is 63.89*** %. For the same molecule, the “Prolongation of the time reaction” value in the series with mice [12] (0.031%) is recorded as 60.0%; in the series with mice [12] (0.094%), 82.9%; in the series on mice [12] (0.125%), 348.6%; in the series with mice [12] (0.5%), 457.1%; with mice [12] (2.0%), 437.1%; with mice [12] ([…]), 5.7%. Also, the “Reaction time to painful stimulus” value was found to be 5.6 ± 0.9 s with mice [12] (0.031%); 6.4 ± 0.8 s with mice [12] (0.094%); 15.7 ± 1.8 s with mice [12] (0.125%); 19.5 ± 0.5 s with mice [12] (0.5%); 18.8 ± 1.9 s in the series on mice [12] (2.0%); 3.7 ± 0.6 s in the series on mice [12] ([…]). In addition, the “Rotarod: neurotoxic at” value in the series with mice [4] (0.5 h) is “MES: active at 100 Rotarod: neurotoxic at 100 mg/kg”. In the series with mice [5] (0.5 h), the “MES: active at” value is on record as “MES: active at 100 Rotarod: neurotoxic at 100 mg/kg”. In the series on mice [14] (30.0 mg/kg), the “% of effect (I phase)” value worked out at 33.4%. The “% of effect (II phase)” value in the series with mice [14] (30.0 mg/kg) was 10.2%. Moreover, in the series with mice [14] (30.0 mg/kg), the “Time of licking paw ± SEM (I phase)” value was 59.7 ± 6.4 s. Besides, the “formalin test (I phase): active at” value in the series with mice [14] amounted to 30 mg/kg.
In the case of `CCC(NC(=O)COc1c(C)cccc1Cl)C(=O)O` (centres unmarked) [Compound 16, R,S-2-(2-(2-chloro-6-methylphenoxy)acetamido)butanoic acid], the “Antiseizure activity and preliminary toxicity screening: result” value in the series on mice [9] is recorded as “No activity”.
On the same count and under the same terms, under `Cc1cccc(Cl)c1OCC(=O)N[C@H](C)C(=O)O` [Compound 14, R-(+)-(2-(2-chloro-6-methylphenoxy)acetyl)alanine] stands “No activity”.
As for `Cc1cccc(Cl)c1OCC(=O)NCC(C)O` (centres unmarked) [Compound 10, R,S-2-(2-chloro-6-methylphenoxy)-N-(2-hydroxypropyl)acetamide], the “ScPTZ: active at” value in the series on mice [3] worked out at 300 mg/kg. The “Rotarod: neurotoxic at” value in the series with mice [4] (0.5 h) is given as 300 mg/kg.
Molecule `Cc1cccc(Cl)c1OCCNC(C)(CO)CO` [Compound 7, 2-((2-(2-chloro-6-methylphenoxy)ethyl)amino)-2-methylpropane-1,3-diol] came in with a melting point of 83 to 85 °C. For the same molecule, the “Rotarod: neurotoxic at” value in the series on mice [4] (0.5 h) is reported as “MES: active at 100 Rotarod: neurotoxic at 100 mg/kg”. Besides, the “MES: active at” value in the series with mice [5] (0.5 h) is on record as “MES: active at 100 Rotarod: neurotoxic at 100 mg/kg”.
For the molecule `Cc1cccc(Cl)c1OCCN[C@@H]1CCCC[C@H]1O` (relative stereo) [Compound 8, R,S-trans-2-((2-(2-chloro-6-methylphenoxy)ethyl)amino)cyclohexan-1-ol], in the series on mice [4] (0.5 h), the “Rotarod: neurotoxic at” value is on record as 100 mg/kg. Besides, in the series with mice [5] (0.5 h), the “MES: active at” value came to 30 mg/kg.

By melting point is commonly meant the temperature of the solid-liquid transition.
